In brackets after ≈: the same amount, converted by molar mass. Read-outs that look alike come from different tables or passages of the source. Blank lines part the entries; values can stand above or below the compound they belong to.
Tests used:
[1] = Membrane permeability (Papp) across Caco-2 cell monolayer, apical to basolateral; type: in vitro ADME; settings: human, Caco-2, apical to basolateral, 37° C.
Method: (§1) Determination of membrane permeability in all examples described herein was accomplished by the following procedure. This procedure is also used to determine whether a given prodrug falls within the scope of those claims given herein which relate to membrane permeability.
(§2) Caco-2 cells were seeded on Costar™ 12 mm diameter, 0.4 μm pore size transwell filters, and were cultured at 37° C., 5% CO2 in a humidified tissue culture chamber.
(§3) DMEM was equilibrated as a transport buffer in 37° C. water bath an hour before experiment. The cells were then equilibrated in transport buffer for 1 hr at 37° C.
(§4) Dosing solution (10 μM) was prepared by adding a 20 μL aliquot of a 10 mM stock solution of the prodrug to 20 mL of transport buffer.
(§5) Transport across Caco-2 cell monolayer was measured at 37° C., in the apical to basolateral direction (n=3).
(§6) Transport buffer was removed from both apical and basolateral compartment of filters. Dosing solution (0.2 mL) was added to the apical compartment of the cell layers on transwell filters, and 0.8 ml fresh pre-warmed transport buffer was added to basolateral compartment. Timing was started for transport, and at 5, 20, and 60 min after transport started, sample fluid (400 μL) was collected from the basolateral compartment. Fresh transport buffer (400 μL) was added back to the basolateral compartment, and the fluid was thoroughly mixed.
(§7) Transport samples, dosing solution, and standards(100 μL) each were mixed with 100 μl of a 500 ng/ml internal standard (Lansoprazole-D) for LC-MS/MS analysis, and part of each sample (100 μL) was vortexed and transferred into glass LC-MS/MS vials for analysis.
(§8) The apparent permeability coefficient (Papp, cm/sec), otherwise known herein as the membrane permeability, is determined from the following relationship: Papp=J/(ACo) where J (pmol/min) is the transport rate, meaning the rate of prodrug movement through the cell layer, A (cm^2) is the filter surface area, and Co (μM) is the initial dosing concentration.
(§9) The transport rate J, is calculated as the slope of the linear regression fit for the transport amount over time data using Microsoft Excel® 97 SR-2 (Microsoft Corp. Redmond, Wash.).
(§10) Lucifer yellow (LY) was used as a paracellular permeability reference standard to determine integrity of cell layers used in the experiments. LY transport in the apical to basolateral direction was carried out in the same manner as described above. Fluorescence level in basolateral fluid sampled at 5, 20, and 60 min post dose was determined using Fluostar Galaxy (BMG Labtechnologies, Durham, N.C.) at excitation/emission wavelengths of 485/520 nm. A standard curve covering the range from 0.002 to 0.5 mg/mL is constructed to quantify the amount of LY in the transport sample to calculate permeability coefficient (Papp).

[2] = Systemic half-life after oral or intravenous administration in rats; type: in vivo, rats (Sprague-Dawley); settings: for half-life: Sprague-Dawley, rat, blood; for half-life / Systemic omeprazole half-life: rats
Method: (§11) Blood concentrations of the compounds omeprazole, lansoprazole, pantoprazole, rabeprazole, and test compounds were quantified using an achiral liquid chromatography tandem mass spectrometry method (LC-MS/MS). Systemic pharmacokinetic parameters were determined for omeprazole or lansoprazole using non-compartmental analysis in Watson® version 6.3, available from InnaPhase Corporation, Philadelphia, Pa.

[3] = Systemic half-life after oral or intravenous administration in dogs; type: in vivo, dogs (beagle); settings: for half-life: beagle, dog, blood
Method: as §11

[4] = somewhat buffer dependent, Kromer et al., Ekpe et al., cited from earlier work
[5] = Systemic omeprazole after enteric-coated or regular capsules in monkeys; type: in vivo; settings: Monkey, oral capsule of sodium salt of compound 1
Method: (§12) The bioavailability of compound 1 in enterically coated and non enterically coated dosage forms was investigated for dogs and monkeys. Regular and enteric-coated size 3 HPMC capsules (Capsugel, Morris Plains, N.J.) containing compound 1 were prepared by placing the appropriate amount of the sodium salt of compound 1 in the capsule. The enteric-coating material was prepared by dissolving cellulose acetate phthalate in a mixture of isopropyl alcohol and dichloromethane. The entire capsule was dipped in the enteric-coating material, and the isopropyl alcohol and dichloromethane were allowed to evaporate. The dosage forms were administered to the animals and the concentration of the omeprazole in the blood was determined as described in the oral bioavailability determination of Example 2. The maximum concentration of omeprazole (Cmax) and the total area under the curve (AUC) for the animals receiving both enterically coated and non-enterically coated oral dosage forms is presented in Table 4B. In both dogs and monkeys, both the Cmax and the AUC are higher for the non-enterically coated dosage form.

[6] = Hygroscopicity on storage; type: physicochemical; settings: 14 days of storage at 25° C. at 75% relative humidity
Method: The physicochemical properties of compound 1 were analyzed.

[7] = Oral administration of solid dosage form to a person suffering from heartburn; type: in vivo; settings: 40 mg compound 1, 50% as sodium salt, oral daily
Method: A solid dosage form comprising 40 mg of compound 1, having 50% of the prodrug in the form of the sodium salt, is orally administered daily to a person suffering from heartburn. Relief of pain begins to occur within about 1 day, and continues as long as the person takes the dosage form.

[8] = Systemic omeprazole after enteric-coated or regular capsules in dogs; type: in vivo; settings: Dog, oral capsule of sodium salt of compound 1
Method: as §12

[9] = test system: Caco-2 cells; assay: Membrane permeability (Papp) across Caco-2 cell monolayer, apical to basolateral; type: in vitro ADME; settings: Caco-2, apical to basolateral, 10 μM, 37° C.
Method: as §1, §2, §3, §4, §5, §6, §7, §8, §9, §10

[10] = Solubility profile in buffered aqueous solutions; type: physicochemical; settings: 25° C.
From the text: While not intending to be bound in any way by theory, it is believed that this improvement in solubility is due to the deprotonation of a sufficient quantity of the acid.

[11] = Stability profile in buffered aqueous solutions; type: physicochemical; settings: 25° C.
[12] = Degradation in simulated gastric fluid; type: physicochemical; settings: simulated gastric fluid (USP, pepsin); pH 1.2
Method: Simulated gastric fluid was prepared as specified by USP (http://www.uspnf.com/uspnf/usp26nf21/default.htm, Reagents>Solutions>Test Solutions>Gastric Fluid, Simulated). To make 200 mL of simulated gastric fluid, 0.4 g of sodium chloride and 0.64 g of purified pepsin, with an activity of 800 to 2500 units per mg of protein, was dissolved in 1.4 mL of hydrochloric acid and sufficient water. The solution was adjusted to the appropriate pH with hydrochloric acid.
The pH dependence of the half-life of compound 1 in the simulated gastric fluid is depicted in Table 4A.

[13] = oral solution, systemic half-life of the proton pump inhibitor, unit inferred, read-out: Rat T1/2 PPI (converted)
[14] = po, Table 2D, read-out: t1/2 (systemic half-life in dogs after oral administration) (converted)
[15] = po, oral solution, systemic half-life of the proton pump inhibitor, unit inferred, read-out: Dog T1/2 PPI (converted)
[16] = pH 3, Citric Acid (0.1 M)/Na2HPO4 (0.2 M)
[17] = pH 5, Citric Acid (0.1 M)/Na2HPO4 (0.2 M)
[18] = pH 7, sodium phosphate (0.1-0.2 M)
[19] = pH 9, sodium phosphate (0.1-0.2 M)
[20] = pH 7.4, sodium phosphate (0.1-0.2 M)
[21] = pH 10, sodium phosphate (0.1-0.2 M)
[22] = intravenous, equivalent omeprazole dose 1 mg/kg
[23] = oral, equivalent omeprazole dose 10 mg/kg

Papp A→B at 60 min, 10 μM [1]: 15 ×10⁻⁶ cm/s
half-life [2, 13]: 30.6 min
half-life [3, 14]: 34.2 min
half-life [3, 15]: 34.4 min
SMILES: Cc1c(OCC(F)(F)F)ccnc1C[S+]([O-])c1nc2ccccc2[nH]1 (centres unmarked) [Lansoprazole, reference compound]

Papp A→B at 60 min, 10 μM [1]: 13 ×10⁻⁶ cm/s
half-life ([2]; intravenous, equivalent omeprazole dose 1 mg/kg, read-out: Systemic omeprazole half-life (converted)): 9 min
half-life [2, 13]: 18.5 min
half-life ([2]; oral, equivalent omeprazole dose 10 mg/kg, read-out: Systemic omeprazole half-life (converted)): 18.6 min
half-life ([3]; iv, 1 mg/kg, intravenous, equivalent omeprazole dose 1 mg/kg, read-out: Systemic omeprazole half-life (converted)): 36 min
half-life ([3]; po, 10 mg/kg, oral, equivalent omeprazole dose 10 mg/kg, read-out: Systemic omeprazole half-life (converted)): 42 min
half-life [3, 14]: 42 min
half-life [3, 15]: 41.8 min
SMILES: COc1ccc2[nH]c([S+]([O-])Cc3ncc(C)c(OC)c3C)nc2c1 (centres unmarked) [Omeprazole, reference compound]
typical half-life (aqueous stability) ([4]; pH 5): about 1 hour
typical half-life (aqueous stability) ([4]; pH 7): about 40 hours

AUC Omeprazole/Dose ([5]; Enteric Coating): 18.9 ± 7.9 ng·h/mL/mg/kg
Cmax Omeprazole/Dose ([5]; Enteric Coating): 6.09 ± 1.04 ng/mL/mg/kg
AUC Omeprazole/Dose ([5]; Regular Capsule): 19.7 ± 8.8 ng·h/mL/mg/kg
Cmax Omeprazole/Dose ([5]; Regular Capsule): 14.0 ± 17.1 ng/mL/mg/kg
weight gain [6]: 9%
AUC Omeprazole/Dose ([8]; Enteric Coating): 82.2 ± 18.4 ng·h/mL/mg/kg
Cmax Omeprazole/Dose ([8]; Enteric Coating): 22.5 ± 7.3 ng/mL/mg/kg
AUC Omeprazole/Dose ([8]; Regular Capsule): 91.3 ± 32.9 ng·h/mL/mg/kg
Cmax Omeprazole/Dose ([8]; Regular Capsule): 29.2 ± 11.8 ng/mL/mg/kg
Permeability [9]: 0.12 ×10⁻⁶ cm/s
Solubility ([10]; pH 1, 0.1 M HCl): 1.8 mg/mL (≈ 3.22 mM)
Solubility [10, 16]: 0.4 mg/mL (≈ 0.715 mM)
Solubility [10, 17]: >50 mg/mL
Solubility [10, 18]: >50 mg/mL
Solubility [10, 19]: >50 mg/mL
Degradation Rate Constant (k) ([11]; pH 1, 0.1 M HCl): 0.194 h⁻¹
Half-life (t1/2) ([11]; pH 1, 0.1 M HCl): 3.6 h
Shelf life (t90%) ([11]; pH 1, 0.1 M HCl): 0.5 h
Degradation Rate Constant (k) [11, 16]: 0.009 h⁻¹
Half-life (t1/2) [11, 16]: 78.0 h
Shelf life (t90%) [11, 16]: 11.9 h
Degradation Rate Constant (k) [11, 17]: 0.008 h⁻¹
Half-life (t1/2) [11, 17]: 89.2 h
Shelf life (t90%) [11, 17]: 13.6 h
Degradation Rate Constant (k) [11, 18]: 0.002 h⁻¹
Half-life (t1/2) [11, 18]: 286.8 h
Shelf life (t90%) [11, 18]: 43.6 h
Degradation Rate Constant (k) [11, 20]: 0.002 h⁻¹
Half-life (t1/2) [11, 20]: 291.2 h
Shelf life (t90%) [11, 20]: 44.3 h
Degradation Rate Constant (k) [11, 19]: 0.030 h⁻¹
Half-life (t1/2) [11, 19]: 23.0 h
Shelf life (t90%) [11, 19]: 3.5 h
Degradation Rate Constant (k) [11, 21]: 0.298 h⁻¹
Half-life (t1/2) [11, 21]: 2.3 h
Shelf life (t90%) [11, 21]: 0.4 h
Prodrug in the bloodstream 5 minutes after intravenous administration ([2]; rats (Table 2A study), intravenous, 5 minutes): not detected
Systemic omeprazole half-life [2, 22]: 10.8 min
Systemic omeprazole half-life [2, 23]: 102 min
Systemic omeprazole half-life [3, 22]: 60 min
Dog T1/2 PPI ([3]; oral solution, systemic half-life of the proton pump inhibitor, unit inferred): 125 min
t1/2 (systemic half-life in dogs after oral administration) ([3]; oral, Table 2D): 144 min
Systemic omeprazole half-life [3, 23]: 144 min
Half-life in Simulated Gastric Fluid [12]: 180 min
SMILES: COc1ccc2c(c1)nc([S+]([O-])Cc1ncc(C)c(OC)c1C)n2S(=O)(=O)c1ccc(OCC(=O)O)cc1 (centres unmarked) [Compound 1]
Relief of pain begins to occur [7]: ≤ 1 days
